# Assays:
# [1] = Solubility in organic solvents at 25° C.
# [2] = Oxidation test: toluene solutions allowed to stand in air at room temperature, HPLC peak area ratio; type: physicochemical; conditions: for Peak area ratio (%) of starting compound to whole peak area: toluene solution 0.33 mg/mL, in air, HPLC UV 290 nm, time 0 day (initial); for Change in peak area ratio on preservation as a solution (in words): long period of time
# From the text: The stability in air of the fullerene derivatives of the present invention may be confirmed, for example, by analyzing the change in quality thereof with time by HPLC. More specifically, the stability in air can be determined as follows. That is, a toluene solution of the fullerene derivatives of the present invention which is allowed to stand in air at room temperature, is subjected to HPLC using an octadecyl-bonded silica gel column (hereinafter referred to merely as “ODS” column), an eluent composed of toluene and methanol and a UV wavelength of 290 nm to measure the rate of reduction in area ratio of a peak attributed to the fullerene derivatives to whole peaks as observed. Concretely, it can be evaluated by the stability in air of solution of fullerene derivative according to the present invention to the solution of same fullerene derivative to the present one except for having a hydrogen atom on cyclopentadiene ring of fullerene skeleton, for example, a C60Ph5CH3 solution to a C60Ph5H solution (Ph represents a phenyl group). For example, the rate of reduction in peak area ratio of the fullerene derivatives according to the present invention is usually 1/20 or lower, preferably 1/100 or lower than that of the case where one having a hydrogen atom on cyclopentadiene ring, namely C60Ph5H, is used under the same conditions.
# 90 mL of a toluene solution of C60Ph5H (0.33 mg/mL) and 90 mL of a toluene solution of C60Ph5Me obtained in Example 10 (0.33 mg/mL) were respectively prepared and allowed to stand in air at room temperature. The prepared solutions were sampled in an amount of 0.5 mL for each every several days, and subjected to HPLC analysis to examine the change in quality thereof with time. The HPLC analysis conditions were ODS; column size: 150 mm×4.6 mmφ; eluent: toluene/methanol=4/6; flow rate: 1.0 mL/min; detector used: UV 290 nm.
# [3] = toluene solution in air, time 1 day
# [4] = toluene solution in air, time 2 days
# [5] = toluene solution in air, time 6 days
# [6] = toluene solution in air, time 8 days
# [7] = toluene solution in air, time 9 days
# [8] = toluene solution in air, time 14 days
# [9] = toluene solution in air, time 15 days
# [10] = toluene solution in air, time 16 days
# [11] = toluene solution in air, time 20 days
# [12] = toluene solution in air, time 22 days
# [13] = toluene solution in air, time 23 days
# [14] = toluene solution in air, time 63 days
Peak area ratio (%) of starting compound to whole peak area [2] [%],"Peak area ratio (%) [2, 3] [%]","Peak area ratio (%) [2, 4] [%]","Peak area ratio (%) [2, 5] [%]","Peak area ratio (%) [2, 6] [%]","Peak area ratio (%) [2, 7] [%]","Peak area ratio (%) [2, 8] [%]","Peak area ratio (%) [2, 9] [%]","Peak area ratio (%) [2, 10] [%]","Peak area ratio (%) [2, 11] [%]","Peak area ratio (%) [2, 12] [%]","Peak area ratio (%) [2, 13] [%]","Peak area ratio (%) [2, 14] [%]",SMILES,Change in peak area ratio on preservation as a solution (in words) ([2]; toluene solution in air),other results
–,–,–,–,–,–,–,–,–,–,–,–,–,"CCOC(=O)CCCC12C3=C4C5=C1C1(C)c6c7c8c9c(c%10c%11c%12c(c%13c%14c%15c(c%16c%17c%18c(c1c1c6c6c8c8c%19c9c%11c9c%11c%12c%14c%12c%14c%15c%17c%15c%17c%18c1c1c6c8c6c(c9%19)c(c%11%12)c(c%14%15)c6c1%17)C%162C)C3%13C)C4%10C)C57C (stereo not shown) [C60Me5—(CH2)3CO2Et, 1-(3-(ethoxycarbonyl)propyl)-6,9,12,15,18-pentamethyl-1,6,9,12,15,18-hexahydro-(C60-Ih)[5,6]fullerene]",–,"Solubility in chloroform (CHCl3) ([1]; CHCl3, 25° C.): 35.9 mg/mL; Solubility in N,N-dimethylformamide (DMF) ([1]; DMF, 25° C.): 15.4 mg/mL; Solubility in ethyl acetate (EtOAc) ([1]; EtOAc, 25° C.): 3.9 mg/mL; Solubility in tetrahydrofuran (THF) ([1]; THF, 25° C.): 103.0 mg/mL"
98.5,97.5,96.7,94.4,93.2,92.9,90.6,90.1,89.6,88.6,87.4,87.4,70.1,c1ccc(C23C4=C5C6C7=C4C4(c8ccccc8)c8c2c2c9c3c3c%10c%11c(c%12c%13c%14c(c%15c%16c%17c(c4c4c8c8c2c2c%18c9c%10c9c%10c%11c%13c%11c%13c%14c%16c%14c%16c%17c4c4c8c2c2c(c%189)c(c%10%11)c(c%14%13)c2c4%16)C7%15c2ccccc2)C%126c2ccccc2)C53c2ccccc2)cc1 (stereo not shown) [Example C60Ph5H],considerable reduction in peak area ratio,"Rate of reduction of the peak area ratio ([2]; toluene solution in air): about 0.45 % per day; Peak area ratio (%) ([2]; toluene solution in air, time 5 days): 95.0%; Peak area ratio (%) ([2]; toluene solution in air, time 12 days): 92.0%; Peak area ratio (%) ([2]; toluene solution in air, time 13 days): 91.7%; Peak area ratio (%) ([2]; toluene solution in air, time 26 days): 85.9%; Peak area ratio (%) ([2]; toluene solution in air, time 30 days): 84.3%; Peak area ratio (%) ([2]; toluene solution in air, time 33 days): 81.5%; Peak area ratio (%) ([2]; toluene solution in air, time 37 days): 80.4%; Peak area ratio (%) ([2]; toluene solution in air, time 43 days): 78.9%; Peak area ratio (%) ([2]; toluene solution in air, time 51 days): 74.1%; Peak area ratio (%) ([2]; toluene solution in air, time 58 days): 71.4%; Peak area ratio (%) ([2]; toluene solution in air, time 65 days): 70.1%"
98.8,98.4,98.9,98.4,98.7,98.5,98.3,98.9,98.4,98.4,97.1,97.4,98.3,"CC12C3=C4C5=C1C1(c6ccccc6)c6c7c8c9c(c%10c%11c%12c(c%13c%14c%15c(c%16c%17c%18c(c1c1c6c6c8c8c%19c9c%11c9c%11c%12c%14c%12c%14c%15c%17c%15c%17c%18c1c1c6c8c6c(c9%19)c(c%11%12)c(c%14%15)c6c1%17)C%162c1ccccc1)C3%13c1ccccc1)C4%10c1ccccc1)C57c1ccccc1 (stereo not shown) [Example C60Ph5Me, 1-methyl-6,9,12,15,18-pentaphenyl-1,6,9,12,15,18-hexahydro-(C60-Ih)[5,6]fullerene]",kept substantially unchanged,"Peak area ratio (%) ([2]; toluene solution in air, time 3 days): 98.8%; Peak area ratio (%) ([2]; toluene solution in air, time 7 days): 98.3%; Peak area ratio (%) ([2]; toluene solution in air, time 10 days): 98.0%; Peak area ratio (%) ([2]; toluene solution in air, time 21 days): 98.4%; Peak area ratio (%) ([2]; toluene solution in air, time 25 days): 98.5%; Peak area ratio (%) ([2]; toluene solution in air, time 31 days): 97.9%; Peak area ratio (%) ([2]; toluene solution in air, time 38 days): 98.2%; Peak area ratio (%) ([2]; toluene solution in air, time 48 days): 98.1%"
